“Also recorded” adds a separate entry of the source. Where two headings read alike, the source gives them in different places. * marks the point of attachment. butyroxycarboxy = not defined here; pNA = O=[N+]([O-])c1ccc(N*)cc1
What was measured:
Type in all cases: biochemical, Alkaliphillus transvaalensis
alkaline protease ALTP [1] = test: Action on synthetic substrates (synthetic substrate method, p-nitroaniline release); conditions: for Relative activity (%): activity to AAPF = 100%, pH 10.0, 30° C., 10 minutes
Description: 0.9 ml of 100 mmol/L borate buffer (pH=10.0, containing 2 mmol/L calcium chloride) was mixed with 0.05 ml of a 50 mmol/L synthetic substrate solution (solution obtained by dissolving a p-nitroanilide derivative of an oligopeptide in dimethyl sulfoxide), and the mixture was warmed at 30° C. for 5 minutes. Then, 0.05 ml of the enzyme solution was added, and a reaction was conducted at 30° C. for 10 minutes. 2 ml of a 5% (w/v) citric acid solution was added to terminate the reaction. Absorbance at 420 nm was measured with a spectrophotometer to quantify liberated p-nitroaniline.
Herein, one unit (PU) of the enzyme referred to an amount of an enzyme required to liberate 1 μmol of p-nitroaniline for 1 minute under the foregoing reaction conditions.
Reactivity of alkaline protease ALTP of the invention with each synthetic substrate was measured using synthetic oligopeptide substrates shown in Table 6.
0.9 ml of 100 mmol/L borate buffer (pH=10.0, containing 2 mmol/L calcium chloride) was mixed with 0.05 ml of a 50 mmol/L synthetic substrate solution shown in Table 6. After the mixture was warmed at 30° C. for 5 minutes, 0.05 ml of the enzyme solution was added thereto, and the reaction was conducted at 30° C. for 10 minutes. 2 ml of a 5% (w/v) citric acid solution was added to terminate the reaction. Absorbance at 420 nm was measured using a spectrophotometer, and p-nitroaniline liberated was quantified.
Target sequence in this assay (as listed by the source): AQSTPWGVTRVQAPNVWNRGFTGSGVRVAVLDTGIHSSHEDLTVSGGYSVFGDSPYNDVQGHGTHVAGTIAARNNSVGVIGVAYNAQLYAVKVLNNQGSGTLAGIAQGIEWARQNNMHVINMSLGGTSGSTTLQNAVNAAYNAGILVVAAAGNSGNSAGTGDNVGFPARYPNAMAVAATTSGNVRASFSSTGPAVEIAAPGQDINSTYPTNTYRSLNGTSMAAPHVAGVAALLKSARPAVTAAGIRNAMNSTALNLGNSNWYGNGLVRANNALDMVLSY

alkaline protease ALTP [2] = conditions: for Residual activity (%): pH 10
alkaline protease ALTP [3] = test: Influence of inhibitors on residual activity
Description: Each inhibitor was added to 20 mmol/L phosphate buffer (pH 7) at a predetermined concentration, and the invention enzyme was added thereto. The solution was warmed at 30° C. for 20 minutes. Subsequently, the resulting solution was approximately diluted with 50 mmol/L borate buffer (pH 10), and the residual activity was measured.

alkaline protease ALTP [4] = test: Influence of surfactants on residual activity (casein method); conditions: for Residual activity (%): pH 9.0, 40° C., 4 hours, time 0 = 100%
Description: Influence of surfactants on alkaline protease ALTP of the invention was examined. That is, the invention enzyme solution was added to 0.1 mol/L Tris-hydrochloride buffer (pH 9.0), and each of various surfactants shown in Table 4 was added to the solution. The treatment was conducted at 40° C. for 4 hours. Subsequently, the solution was properly diluted with 50 mmol/L borate buffer (pH 10.5) containing 2 mmol/L calcium chloride, and the residual activity was measured by the casein method. The residual activity was expressed in terms of a relative value when an activity value (treatment time 0 minute) immediately after addition of the enzyme to each sample was defined as 100%.

[5] = inhibitor 0.1 mM, pH 7, 30° C., 20 minutes
[6] = inhibitor 1.0 mM, pH 7, 30° C., 20 minutes

N-succinyl-Ala-Ala-Pro-Met-p-nitroanilide (AAPM; HELM PEPTIDE1{[O=C(O)CCC(=O)[*:2]].A.A.P.M.[O=[N+]([O-])c1ccc(N[*:1])cc1]}$$$$V2.0; SMILES CSCC[C@H](NC(=O)[C@@H]1CCCN1C(=O)[C@H](C)NC(=O)[C@H](C)NC(=O)CCC(=O)O)C(=O)Nc1ccc([N+](=O)[O-])cc1) [synthetic substrate]
Relative activity (%) (alkaline protease ALTP [1]): 74%

[Cl][Pb][Cl] [PbCl2]
inhibition by metal ion (alkaline protease ALTP [2]; concentration of 1 mM): not inhibited | Residual activity (%) (alkaline protease ALTP [2]): 115%

CC(C)C[C@H](NC(=O)[C@@H](O)[C@H](N)Cc1ccccc1)C(=O)O [Bestatin]
Residual activity (%) (alkaline protease ALTP [3]; [5]): 106%

[Ba+2].[Cl-].[Cl-] [BaCl2]
inhibition by metal ion (alkaline protease ALTP [2]; concentration of 1 mM): not inhibited | Residual activity (%) (alkaline protease ALTP [2]): 100%

O=C(O)CN(CCN(CC(=O)O)CC(=O)O)CC(=O)O [EDTA, ethylenediamine tetraacetic acid]
inhibition (alkaline protease ALTP [3]; 100 mM): little inhibited; also recorded: not inhibited | Residual activity (%) (alkaline protease ALTP [3]; inhibitor 100 mM, pH 7, 30° C., 20 minutes): 100%

[Cl][Cu][Cl] [CuCl2]
inhibition by metal ion (alkaline protease ALTP [2]; concentration of 1 mM): not inhibited | Residual activity (%) (alkaline protease ALTP [2]): 109%

N- succinyl-Gly-Gly-Phe-p-nitroanilide (GGF; HELM PEPTIDE1{[O=C(O)CCC(=O)[*:2]].G.G.F.[O=[N+]([O-])c1ccc(N[*:1])cc1]}$$$$V2.0; SMILES O=C(O)CCC(=O)NCC(=O)NCC(=O)N[C@@H](Cc1ccccc1)C(=O)Nc1ccc([N+](=O)[O-])cc1) [synthetic substrate]
activity to further synthetic substrates (alkaline protease ALTP [1]): showed activity

N-succinyl-Ala-Ala-Ala-p-nitroanilide [AAA]
activity to further synthetic substrates (alkaline protease ALTP [1]): showed activity

[Cl-].[K+] [KCl]
inhibition by metal ion (alkaline protease ALTP [2]; concentration of 1 mM): not inhibited | Residual activity (%) (alkaline protease ALTP [2]): 111%

[Cl][Mn][Cl] [MnCl2]
inhibition by metal ion (alkaline protease ALTP [2]; concentration of 1 mM): not inhibited | Residual activity (%) (alkaline protease ALTP [2]): 113%

N-succinyl-Ala-Ala-Val-Ala-p- nitroanilide (AAVA; HELM PEPTIDE1{[O=C(O)CCC(=O)[*:2]].A.A.V.A.[O=[N+]([O-])c1ccc(N[*:1])cc1]}$$$$V2.0; SMILES CC(C)[C@H](NC(=O)[C@H](C)NC(=O)[C@H](C)NC(=O)CCC(=O)O)C(=O)N[C@@H](C)C(=O)Nc1ccc([N+](=O)[O-])cc1) [synthetic substrate]
Relative activity (%) (alkaline protease ALTP [1]): 4.6%

Sodium α-olefin sulfonate
inhibition of activity by surfactant (alkaline protease ALTP [4]): not inhibited | Residual activity (%) (alkaline protease ALTP [4]; surfactant 1.0%): 128%

[Cl][Sn][Cl] [SnCl2]
inhibition by metal ion (alkaline protease ALTP [2]; concentration of 1 mM): not inhibited | Residual activity (%) (alkaline protease ALTP [2]): 108%

NC(N)=O [urea]
inhibition (alkaline protease ALTP [3]; 0.5 M): little inhibited

CC(C)C[C@H](NC(=O)[C@@H](NC(=O)N[C@@H](Cc1ccccc1)C(=O)O)[C@@H]1CCN=C(N)N1)C(=O)N[C@H](C=O)Cc1ccccc1 [Chymostatin]
inhibition (alkaline protease ALTP [3]; 30 ppm): completely inhibited | Residual activity (%) (alkaline protease ALTP [3]; inhibitor 30 ppm, pH 7, 30° C., 20 minutes): 0%

Sodium polyoxyethylene alkyl sulfate
inhibition of activity by surfactant (alkaline protease ALTP [4]): not inhibited | Residual activity (%) (alkaline protease ALTP [4]; surfactant 1.0%): 99%

[Cl-].[Cl-].[Co+2] [CoCl2]
inhibition by metal ion (alkaline protease ALTP [2]): not inhibited | Residual activity (%) (alkaline protease ALTP [2]): 92%

[Cl-].[Cl-].[Mg+2] [MgCl2]
inhibition by metal ion (alkaline protease ALTP [2]; concentration of 1 mM): not inhibited | Residual activity (%) (alkaline protease ALTP [2]): 105%

CCCCCCCCCCCCOS(=O)(=O)[O-].[Na+] [Sodium dodecyl sulfate]
inhibition (alkaline protease ALTP [3]; 1 mM): little inhibited | inhibition of activity by surfactant (alkaline protease ALTP [4]): not inhibited | Residual activity (%) (alkaline protease ALTP [4]; surfactant 10.0%): 104%

O=S(=O)(F)Cc1ccccc1 [PMSF, phenylmethanesulfonyl fluoride]
inhibition (alkaline protease ALTP [3]; 1 mM): completely inhibited | Residual activity (%) (alkaline protease ALTP [3]; [6]): 0%

Sodium alkane sulfonate
inhibition of activity by surfactant (alkaline protease ALTP [4]): not inhibited | Residual activity (%) (alkaline protease ALTP [4]; surfactant 10.0%): 107%

[Cl-].[Na+] [NaCl]
inhibition by metal ion (alkaline protease ALTP [2]): not inhibited | Residual activity (%) (alkaline protease ALTP [2]): 112%

[Cl][Hg][Cl] [HgCl2]
inhibition by metal ion (alkaline protease ALTP [2]; concentration of 1 mM): inhibited | Residual activity (%) (alkaline protease ALTP [2]): 15%

N-glutaryl-Ala-Ala-Pro-Leu-p-nitroanilide (AAPL; HELM PEPTIDE1{[O=C(O)CCCC(=O)[*:2]].A.A.P.L.[O=[N+]([O-])c1ccc(N[*:1])cc1]}$$$$V2.0; SMILES CC(C)C[C@H](NC(=O)[C@@H]1CCCN1C(=O)[C@H](C)NC(=O)[C@H](C)NC(=O)CCCC(=O)O)C(=O)Nc1ccc([N+](=O)[O-])cc1) [synthetic substrate]
Relative activity (%) (alkaline protease ALTP [1]): 91%

N-succinyl-Ala-Ala-p-nitroanilide [AA]
activity to further synthetic substrates (alkaline protease ALTP [1]): showed activity

[Cl-].[Cl-].[Zn+2] [ZnCl2]
inhibition by metal ion (alkaline protease ALTP [2]; concentration of 1 mM): not inhibited | Residual activity (%) (alkaline protease ALTP [2]): 121%

CC(=O)N[C@@H](CC(C)C)C(=O)N[C@@H](CC(C)C)C(=O)N[C@H](C=O)CCCNC(=N)N [Leupeptin]
Residual activity (%) (alkaline protease ALTP [3]; [5]): 100%

[Cl][Fe][Cl] [FeCl2]
Residual activity (%) (alkaline protease ALTP [2]): 120%

[Cl-].[Li+] [LiCl2]
inhibition by metal ion (alkaline protease ALTP [2]; concentration of 1 mM): not inhibited | Residual activity (%) (alkaline protease ALTP [2]): 114%

O=C(O)c1cc[c]([Hg][Cl])cc1 [p-chloromercuribenzoic acid]
inhibition (alkaline protease ALTP [3]; 1 mM): little inhibited

N-p-tosyl-Gly-Pro-Lys-p-nitroanilide ({p‑tosyl}-Gly-Pro-Lys-pNA) [To-GPK, synthetic substrate]
activity to further synthetic substrates (alkaline protease ALTP [1]): showed activity

α-sulfo-fatty acid ester
inhibition of activity by surfactant (alkaline protease ALTP [4]): not inhibited | Residual activity (%) (alkaline protease ALTP [4]; surfactant 1.0%): 106%

N-carboxybenzoxy-Phe-Val-Arg-p-nitroanilide (carboxybenzoxy-Phe-Val-Arg-pNA) [Z-FVR, synthetic substrate]
activity to further synthetic substrates (alkaline protease ALTP [1]): showed activity

[Cl][Fe]([Cl])[Cl] [FeCl3]
Residual activity (%) (alkaline protease ALTP [2]): 110%

Linear sodium alkylbenzene sulfonate
inhibition of activity by surfactant (alkaline protease ALTP [4]): not inhibited | Residual activity (%) (alkaline protease ALTP [4]; surfactant 1.0%): 98%

[Cl][Ni][Cl] [NiCl2]
inhibition by metal ion (alkaline protease ALTP [2]; concentration of 1 mM): not inhibited | Residual activity (%) (alkaline protease ALTP [2]): 94%

O=C(O)CI [Iodine acetate]
Residual activity (%) (alkaline protease ALTP [3]; pH 7): 104%

butyroxycarboxy-Leu-Ser- Thr-Arg-p-nitroanilide (butyroxycarboxy-LSTR-pNA; reading uncertain) [synthetic substrate]
activity to further synthetic substrates (alkaline protease ALTP [1]): showed activity

[Ca+2].[Cl-].[Cl-] [CaCl2]
inhibition by metal ion (alkaline protease ALTP [2]; concentration of 1 mM): not inhibited | Residual activity (%) (alkaline protease ALTP [2]): 118%

triton X-100
inhibition (alkaline protease ALTP [3]; 1%): little inhibited

O=C1CCC(=O)N1Br [N-bromosuccinic acid imide]
Residual activity (%) (alkaline protease ALTP [3]; [6]): 104%

N-succinyl-Ala-Ala-Pro-Phe-p-nitroanilide [AAPF]
Relative activity (%) (alkaline protease ALTP [1]): 100%

N-methoxysuccinyl- Ala-Ile-Pro-Met-p-nitroanilide (AIPM; HELM PEPTIDE1{[COC(=O)CCC(=O)[*:2]].A.I.P.M.[O=[N+]([O-])c1ccc(N[*:1])cc1]}$$$$V2.0; SMILES CC[C@H](C)[C@H](NC(=O)[C@H](C)NC(=O)CCC(=O)OC)C(=O)N1CCC[C@H]1C(=O)N[C@@H](CCSC)C(=O)Nc1ccc([N+](=O)[O-])cc1) [synthetic substrate]
Relative activity (%) (alkaline protease ALTP [1]): 90%

Polyoxyethylene alkyl alcohol
inhibition of activity by surfactant (alkaline protease ALTP [4]): not inhibited | Residual activity (%) (alkaline protease ALTP [4]; surfactant 1.0%): 107%

[Cl][Cd][Cl] [CdCl2]
inhibition by metal ion (alkaline protease ALTP [2]; concentration of 1 mM): not inhibited | Residual activity (%) (alkaline protease ALTP [2]): 100%

— patent publication US8153413B2, “High alkaline protease and use thereof” (Japan Agency for Marine-Earth Science and Technology, priority 2004, dated 2012)
